Square brackets hold non-standard residues; d marks the D form. Peptide text beside a SMILES is read from it. ξ: configuration not given here. ξαMeF = CC(N)(Cc1ccccc1)C(=O)O; Aib = CC(C)(N)C(=O)O
How the values were obtained:
[1] = test system: HUVEC cells (Human Umbilical Vein Endothelial Cells); assay: In vitro neo-angiogenesis: VEGF-dependent tubule formation on matrigel; format: cell-based
Procedure: The in vitro neo-angiogenesis tests were conducted by exploiting the ability of endothelial cells to form, in the presence of pro-angiogenic factors, cords which extend to form a network of microtubules on a layer of polymerised matrigel. For this type of assay, 5×10^4 HUVEC cells (Human Umbilical Vein Endothelial Cells) per well were plated in 24-well plates, in which 300 μl of matrigel was left to polymerise in the presence of 40 ng/ml of VEGF (Vascular Endothelial Growth Factor), used as pro-angiogenic agent, and the peptides indicated, at different concentrations. Tubule formation was evaluated after 18 hours' incubation at 37° C. in 5% CO2, by counting the number of tubular structures in at least 5 fields, chosen at random, with an inverted microscope. The effect of the peptides on VEGF-dependent tubule-forming activity is calculated as a percentage of the number of tubular structures counted in the presence of VEGF (taken as 100%). The data (Table 9) represent the average of two experiments conducted in duplicate. The antagonistic effect of PICM1 and PICM57 on neo-angiogenesis in vitro is dose-dependent. This effect begins at concentrations of aM and reaches the peak action at a concentration of pM (20% of the number of tubular structures counted); 50% of the maximum effect is reached at concentrations of fM. The anti-angiogenic effect exerted by 50 nM of endostatin and the low inhibitory effect exerted by metastin[45-54] are shown by way of comparison.

[2] = test system: human fibrosarcoma HT1080 cells; assay: Directional migration towards 10% FBS in Boyden chamber; format: cell-based
Procedure: The effect of PICM57 described in example 3 on the cell migration of human fibrosarcoma HT1080 cells was tested. A Boyden chamber equipped with polycarbonate filters, having pores with a diameter of 8 μm (Nucleopore), free of polyvinylpyrrolidone and coated with 5 μg/ml of vitronectin (Promega), was used, as reported in the literature (Carriero et al., Cancer Res. 59, 5307, 1999). 3×10^4 cells, in serum-free DMEM (Dulbecco Modified Eagle Medium), were deposited in the upper compartment of the Boyden chamber. The lower chamber was packed with DMEM containing 10% FBS (Foetal Bovine Serum) as a source of chemotactics, in the presence of increasing concentrations of PICM57. The cells were incubated for 4 h at 37° C. in humidified air containing 5% CO2. After incubation, the cells adhering to the upper surface of the filter were mechanically removed, and the migrated cells adhering to the lower surface of the filter were fixed in ethanol, stained with haematoxylin, and counted at 200× in 10 fields/filter chosen at random. The directional migration in response to FBS in the absence of PICM57 was taken as 100% and the effect of PICM57 on cell migration was evaluated in percentage terms. The data represent the average of three independent experiments conducted in duplicate. The antagonistic effect of PICM57 on migration of HT1080 cells towards FBS is dose-dependent (Table 2). It begins at concentrations of 1 aM, reaches 50% of its maximum value at concentrations of 1 fM, and reaches the maximum effect at concentrations of 10 fM (66% of inhibition).
The mobility induced by FBS in the presence of Metastin[45-54] was evaluated under the same experimental conditions (Table 3). […]

[3] = test system: human fibrosarcoma HT1080 cells; assay: In vitro cell invasion through matrigel towards 10% FBS (Boyden chamber); format: cell-based
Procedure: The in vitro cell invasion tests were conducted with Boyden chambers, using polyvinylpyrrolidone free filters, having pores with a diameter of 8 μm (Nucleopore), coated with 70 μg/filter of matrigel and DMEM containing 10% FBS as chemoattractant (Silvestri et al. Int. J. Cancer 102, 562-571, 2002). Human fibrosarcoma HT1080 cells (2×10^5 cells/sample) were deposited in the upper compartment of the chamber in a serum-free culture medium. The lower compartment of the chamber contained DMEM with the addition of 10% FBS as chemotactic source, and the peptides to be assayed, tested at the concentration indicated. The chambers, thus assembled, were placed at 37° C. in a humidified environment containing 5% CO2. After 18 hrs, the cells which had crossed the matrigel and adhered to the lower surface of the filters were fixed, stained and counted. The data represent the average of two independent experiments conducted in duplicate. The results, set out in Table 8, are expressed as the percentage of cells that invade the matrigel in the presence of FBS, but in the absence of peptide (100%). The inhibiting effect of PICM1 and PICM57 on the invasiveness of HT1080 cells is dose-dependent.

[4] = test system: Cell lines of human or murine origin, derived from various tissues; assay: Directional migration towards 10% FBS, all the cell lines tested; format: cell-based; settings: 100 pM PICM1
Procedure: Cell lines of human or murine origin, derived from various tissues, were subjected to in vitro directional migration tests employing Boyden chambers as described in example 4, and using 10% FBS as chemotactic source, in the presence/absence of 100 pM PICM1. Directional migration in response to FBS in the absence of PICM1 was taken as 100%, and the effect of PICM1 on cell migration was evaluated as a percentage of said value. The data represent the average of two independent experiments conducted in duplicate. In all the cell lines tested, an inhibiting effect of PICM1 on cell migration was observed (Table 4). Although the extent of the inhibition differs between the cell lines used, it was never less than 50%, and was also observed in murine melanoma B16 cells, which are unresponsive to Metastin (Ohtaki, T., et al. (2001) Nature 411, 613-617).

[5] = test system: human fibrosarcoma HT1080 cells in CD1 nude mice; assay: Anti-metastatic effect in vivo: pulmonary metastasis of HT1080 cells injected into the caudal vein; settings: 3 mg/Kg every 48 h
Procedure: The anti-metastatic power of PICM1 was evaluated on an animal model. 2×10^6 human fibrosarcoma HT1080 cells, which cause pulmonary metastasis in the experimental model (Schweinitz A, et al., J. Biol. Chem. 279:33613, 2004), were suspended in saline solution and injected into the caudal vein of twenty 7-week-old CD1 nude mice. 24 hours after the inoculation of the tumour cells, groups of 10 animals were treated with a slow injection of 3 mg/Kg of PICM1, dissolved in 100 μl of saline solution, every 48 h, with the animal immobilised. The 10 control animals received the same injection treatment, but with the saline solution only. Each animal was weighed and inspected for dyspnoea every day. […] All the treated and control animals were sacrificed, and an autopsy was conducted. The lungs, liver, kidneys, spleen and heart were subjected to macroscopic and microscopic analysis.

in vivo [6] = settings: mouse
rat = settings: acute
in vivo [7] = settings: rat
mouse = settings: acute
[8] = test system: murine melanoma B16 cells; settings: Ohtaki et al. 2001; cited from earlier work
FPR = biological target: T1, FPR (Homo sapiens, UniProt P21462); settings: cells pre-incubated with 10 μM peptide
T1 sequence (P21462 1-350): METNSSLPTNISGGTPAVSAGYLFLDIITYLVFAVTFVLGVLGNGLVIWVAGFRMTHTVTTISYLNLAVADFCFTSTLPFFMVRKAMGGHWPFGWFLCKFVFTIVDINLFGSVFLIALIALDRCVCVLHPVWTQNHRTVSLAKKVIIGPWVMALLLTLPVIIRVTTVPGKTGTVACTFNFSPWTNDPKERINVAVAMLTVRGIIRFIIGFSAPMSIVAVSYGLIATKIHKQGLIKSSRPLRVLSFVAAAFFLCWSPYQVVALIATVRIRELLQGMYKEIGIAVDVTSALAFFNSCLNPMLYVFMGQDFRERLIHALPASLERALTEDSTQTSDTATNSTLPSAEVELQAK

[9] = 10 pM peptide, 10% FBS alone = 100%
[10] = 10 nM peptide, 10% FBS alone = 100%
[11] = 1 aM peptide, migration toward 10% FBS alone = 100%
[12] = 10 aM peptide, 10% FBS alone = 100%
[13] = 10 fM peptide, 10% FBS alone = 100%
[14] = injection, sacrifice after 22 days

Compound: CC(=O)N[C@@H](CCCNC(=N)N)C(=O)N[C@@H](CCC(=O)O)C(=O)N[C@@H](CCCNC(=N)N)C(=O)N[C@@H](Cc1ccccc1)C(N)=O [PICM1, Ac-Arg-Glu-Arg-Phe-NH2] (Ac-RERF-NH2)
- concentration at which 50% of the maximum effect on neo-angiogenesis is reached [1]: fM
- VEGF-dependent tubule-forming activity (%) ([1]; 10 pM peptide): 30%
- VEGF-dependent tubule-forming activity (%) ([1]; 10 nM peptide): 22%
- VEGF-dependent tubule-forming activity (%) ([1]; 1 aM peptide, 40 ng/ml VEGF = 100%): 104%
- VEGF-dependent tubule-forming activity (%) ([1]; 10 aM peptide): 77%
- VEGF-dependent tubule-forming activity (%) ([1]; 10 fM peptide): 65%
- tubular structures at peak action (% of VEGF-only control) ([1]; peak action at a concentration of pM): 20%
- Cell Migration towards 10% FBS (%) [2, 9]: 46%
- Cell Migration towards 10% FBS (%) ([2]; 100 pM peptide, 10% FBS alone = 100%): 34%
- Cell Migration towards 10% FBS (%) [2, 10]: 35%
- Cell Migration towards 10% FBS (%) [2, 11]: 99%
- Cell Migration towards 10% FBS (%) [2, 12]: 70%
- Cell Migration towards 10% FBS (%) [2, 13]: 56%
- Cell invasion towards 10% FBS (%) ([3]; 10 pM peptide): 55%
- Cell invasion towards 10% FBS (%) ([3]; 10 nM peptide): 44%
- Cell invasion towards 10% FBS (%) ([3]; 1 aM peptide, FBS without peptide = 100%): 100%
- Cell invasion towards 10% FBS (%) ([3]; 10 aM peptide): 101%
- Cell invasion towards 10% FBS (%) ([3]; 10 fM peptide): 62%
- extent of the inhibition of cell migration [4]: ≥ 50%
- extensive sub-pleural neoformations on macroscopic analysis of the lungs [5, 14]: not observed in the treated animals
- pulmonary metastasis on microscopic observation [5, 14]: did not exhibit the presence of metastasis
- histo-morphological alterations of lungs, liver, kidneys, spleen and heart ([5]; autopsy): None of the organs examined, of the controlled or treated animals, presented any histo-morphological alterations, with the exception of the lungs

Compound: CC(=O)N[C@@H](CCCNC(=N)N)C(=O)NC(C)(C)C(=O)N[C@@H](CCCNC(=N)N)C(=O)NC(C)(Cc1ccccc1)C(N)=O (stereo partly drawn) [PICM57, Ac-Arg-Aib-Arg-α(Me)Phe-NH2] (Ac-R[Aib]R[ξαMeF]-NH2)
- LD50 (in vivo [6]): 30 mg/kg
- dose with all animals alive (rat): 58 mg/kg
- dose with all animals dead (rat): 70 mg/kg
- LD50 (in vivo [7]): 65 mg/kg
- dose with all animals alive (mouse): 28 mg/kg
- dose with all animals dead (mouse): 32 mg/kg

Compound: Endostatin [reference compound]
- VEGF-dependent tubule-forming activity (%) ([1]; 10 nM peptide): 30%

Compound: Metastin
- responsiveness of B16 cells [8]: unresponsive

Compound: Metastin[45-54] [reference compound]
- VEGF-dependent tubule-forming activity (%) ([1]; 10 pM peptide): 63%
- VEGF-dependent tubule-forming activity (%) ([1]; 10 nM peptide): 65%
- VEGF-dependent tubule-forming activity (%) ([1]; 10 fM peptide): 90%
- Cell Migration towards 10% FBS (%) [2, 9]: 53%
- concentration needed for comparable inhibition of migration, times greater than PICM57 ([2]; 10 nM Metastin[45-54] vs. 10 fM PICM57): 1,000 times
- Cell Migration towards 10% FBS (%) [2, 10]: 56%
- Cell Migration towards 10% FBS (%) [2, 11]: 100%
- Cell Migration towards 10% FBS (%) [2, 12]: 83%
- Cell Migration towards 10% FBS (%) [2, 13]: 73%
- reduction of binding of fluorescinated formyl-Nle-Leu-Phe-Nle-Tyr-Lys to the cell surface (FPR): does not modify
